The subject of data set [1] is hypoxic ischemic border zone. Nature of the data set: Rabbit focal myocardial ischemia model (LAD occlusion), double-label autoradiography. In kind it is in vivo. The conditions noted are these: permanent LAD coronary artery ligation, intravenous tracer, heart sections. The protocol: A model of focal myocardial ischemia in the rabbit was developed, using permanent ligation of the left anterior descending (LAD) coronary artery. The model consisted of two studies. In the first, relative regional myocardial blood flow (MBF) and relative regional myocardial rate of glucose metabolism (MMRgl) were determined by autoradiography using a double-label study with the flow tracer ^99mTcCl(CDO)3MeB (R. K. Narra et al., J. Nucl. Med., 1989; 30:1830-1837) and ^14C-deoxy-glucose for MMRgl (L. Sokoloff et al., J. Neurochem., 1977, 28, 897-916). ^14C-deoxyglucose and the ^99mTc-hypoxia-localizing tracer were administered to a second group of rabbits with LAD coronary artery occlusion.
After the surgical preparation and 20 minutes of LAD occlusion, ^14C-deoxyglucose (130-150 μCi) was injected as an intravenous bolus, and timed arterial blood samples were obtained. Twenty-five minutes later, ^99mTcCl(CDO)3MeB (10-12 mCi) was administered intravenously. Five minutes later, the rabbits were sacrificed by intravenous injection of Nembutal and potassium chloride. The heart was excised, frozen in liquid Freon-22, and 20 μm coronal sections obtained with a Microtome. Autoradiographs were obtained on all sections. For the first exposure (˜14 hours duration) of Kodak XAR film, extra heavy duty aluminum foil was interposed between the tissue and film to block completely the radiation emanating from ^14C to obtain the MBF information derived from ^99mTcCl(CDO)3MeB alone. After three days (to allow for decay of ^99mTc); a second autoradiograph was obtained without foil. The second exposure lasted 6-8 days, and,provided an image of the regional distribution of ^14C-deoxyglucose.
In a separate experiment using the rabbit LAD occlusion model and the double-label autoradiography procedures described above, the performance of the ^99mTc complex of the ligand described in Example 1 was compared to that of ^14C-misonidazole.

Data set [2] can be described thus: Determination of reduction potential by cyclic voltammetry. It is filed as physicochemical. Particulars: for Epc(V): cyclic voltammetry in dimethylformamide at Hg, vs. Ag/AgNO3; for Reduction process: cyclic voltammetry in dimethylformamide. The protocol: The reduction potentials of misonidazole, ^99TcO(PnAO), and ^99Tc-hypoxia-localizing tracers were determined by cyclic voltammetry (C.V.) in dimethylformamide. […] The reference electrode was Ag/AgNO3 with an acetonitrile filling solution saturated with LiCl. The counter electrode was a platinum wire. Voltamograms at mercury were determined at scan rates of 50, 100, 200, and 500 mV/s.
The solutions used in C.V. studies contained test sample at a concentration of 0.2-0.7 mM and tetrabutylammonium tetrafluoroborate (Bu4NBF4) or tetrabutylammonium hexafluorophosphate (Bu4NPF6) supporting electrolyte at a concentration of 0.1M. The solution was deoxygenated by bubbling solvent-saturated nitrogen or argon through the solution for 15 minutes. Variations in the reference potential were accounted for by determining the C.V. of a Ru(acac)3 standard on a daily basis.

The subject of data set [3] is Calcium-tolerant ventricular myocytes. In words: Isolated cardiac myocyte studies, retention of radioactivity. In kind it is cell-based, male Sprague Dawley rats. The conditions noted are these: isolated myocytes. The text has this:
Calcium-tolerant ventricular myocytes were isolated from hearts of male Sprague Dawley rats (200 g) according to the procedure of Wittenberg and Robinson (B. A. Wittenberg and T. F. Robinson, Cell Tissue Res., 216: 231, 1981) with modifications described previously (W. Rumsey, C. Schlosser, E. M. Nuutinen, M. Robiolio and D. F. Wilson, J. Biol. Chem., 265 (26): 15392, 1990). Cells were used immediately following morphological analysis (using a hemocytometer) of viability and were maintained at 37° C. during the experiments. The number of quiescent, rod shaped cells ranged from 70-90% within a total population of 5-9×10^6 cells.
The isolated myocytes were maintained in either a normoxic, hypoxic or anoxic state. Hypoxia was induced by providing an atmosphere of argon atop of the cells and sealing the flask during the incubation period. Glucose oxidase plus catalase (5/5 mg) was added to argon treated cells to provide anoxia. Cells were suspended (6.5-7.5×10^4 cells/ml) in isolation media and aliquots were added to incubation vials maintained at 37° C.
After incubation with a test compound, myocytes were deproteinated with 1% ice-cold perchloric acid and centrifuged at 12,000 rpm for 30 sec. The supernatent was separated from the pellet and each counted using a LKB 1282 gamma counter. Alternatively, myocytes were separated from the suspending media by passing the cells through 99% dibutyl phthalate by centrifugation at 12,000 rpm for 30 sec. The three phases were separated and counted as described above. Results for the Tc-99m complex of the compound in Example 1 are given below:
Values represent means ±S.E.M. for the number of experiments noted in the parentheses. The values are the percent of total radioactivity represented by each case. PCA pellet=perchloric acid-precipitated pellet which represents the activity associated with proteins/membranes. Cell pellet=whole cells passed through a layer of dibutyl phthalate (oil).
Several Tc-99m complexes were examined in isolated myocytes using the protocol described above. The percentage of activity retained in the cell pellet was determined under anoxic and normoxic states.

The values below come from US6958141B2, “Rhenium and technetium complexes containing a hypoxia-localizing moiety” (Bracco International B.V., priority 1991, dated 2005).

As usually defined, the melting point is the temperature, or range, at which the solid turns liquid. `COC(=O)CCC(=NO)C(C)(C)NCCCNC(C)(C)C(Cn1ccnc1[N+](=O)[O-])=NO` [Example 24, 12-Methoxycarbonyl-3,3,9,9-tetramethyl-1-(2-nitro-1H-imidazol-1-yl)-4,8-diazadodecane-2,10-dione dioxime] returned a melting point of 137 to 139 °C.

Turning to `CC(=NO)C(C)(C)NCC(CNC(C)(C)C(C)=NO)CC(O)Cn1ccnc1[N+](=O)[O-]` (centres unmarked) [Example 26, 3,3,9,9-Tetramethyl-6-[2-hydroxy-3-(2-nitro-1H-imidazol-1-yl)propyl]-4,8-diazaundecane-2,10-dione dioxime], the melting point lay within 185 to 187 °C. ^14C-misonidazole: in data set [1], the “regional myocardial distribution pattern (autoradiography)” value was “high uptake in the hypoxic border zone of the ischemic territory and low uptake in normoxic regions”. As for `CC(=NO)C(C)(C)NCC(O)CNC(C)(C)C(CCn1ccnc1[N+](=O)[O-])=NO` (centres unmarked) [Example 32, 6-Hydroxy-3,3,9,9-tetramethyl-12-(2-nitro-1H-imidazol-1-yl)-4,8-diazadodecane-2,10-dione dioxime], the melting point lay in the range of 62 to 64 °C. With `CC(=NO)C(C)(C)NCCCNC(C)(C)C(COCC(O)Cn1ccnc1[N+](=O)[O-])=NO` (centres unmarked) [Example 31, 3,3,9,9-Tetramethyl-1-[2-hydroxy-3-(2-nitro-1H-imidazol-1-yl)propoxy]-4,8-diazaundecane-2,10-dione dioxime], the melting point lay in the range of 134 to 135 °C. As to `CC1=[N+](O)[99Tc-]23(=[O])[N](CCC[N]2C1(C)C)C(C)(C)C(CCn1ccnc1[N+](=O)[O-])=[N+]3[O-]` [Example 19, [^99Tc]Oxo[[4,4,10,10-tetramethyl-1-(2-nitro-1H-imidazo-1-yl)-5,9-diazadodecane-3,11-dione dioximato](3-)-N,N′,N″,N′″]technetium(V)], in data set [2] (first or only reduction listed), the “Epc(V)” value was −1.53 V and the Reduction process result is reported as “reversible”. Moreover, in data set [2] (second reduction listed), the “Epc(V)” value is −2.07 V and the Reduction process entry was “irreversible”. For `Cc1ncc([N+](=O)[O-])n1CCO` [Metronidazole, reference compound], in data set [2] (first or only reduction listed), the “Epc(V)” value is on record as −1.62 V and the Reduction process entry was “reversible”.

`CC(=NO)C(C)(C)NCCCNC(C)(C)C(Cn1cc(C)nc1[N+](=O)[O-])=NO` [Example 27, 3,3,9,9-Tetramethyl-1-(4-methyl-2-nitro-1H-imidazol-1-yl)-4,8-diazaundecane-2,10-dione dioxime]: the melting point fell in the range of 140 to 141 °C.

Take `CC(=NO)C(C)(C)NCCCNC(C)(C)C(Cn1ccnc1[N+](=O)[O-])=NO` [Example 1, 3,3,9,9-Tetramethyl-1-(2-nitro-1H-imidazo-1-yl)-4,8-diazaundecane-2,10-dione dioxime]: in data set [2] (first or only reduction listed), the “Epc(V)” value is listed as −1.52 V and the Reduction process result is “reversible”.

For the compound `CC(=NO)C(C)(C)NCCCNC(C)(C)C(Cn1cnc([N+](=O)[O-])c1)=NO` [Example 2, 3,3,9,9-Tetramethyl-1-(4-nitro-1H-imidazo-1-yl)-4,8-diazaundecane-2,10-dione dioxime], in data set [2] (first or only reduction listed), the “Epc(V)” value is listed as −1.81 V and the Reduction process result is “reversible”. Turning to `CC(=NO)C(C)(C)NCC(F)(F)CNC(C)(C)C(CCn1ccnc1[N+](=O)[O-])=NO` [Example 30, 6,6-Difluoro-3,3,9,9-tetramethyl-12-(2-nitro-1H-imidazol-1-yl)-4,8-diazadodecane-2,10-dione dioxime], the melting point was 90 to 92 °C. `CC(=NO)C(C)(C)NCCCNC(C)(C)C(Cn1c(C)cnc1[N+](=O)[O-])=NO` [Example 28, 3,3,9,9-Tetramethyl-1-(5-methyl-2-nitro-1H-imidazol-1-yl)-4,8-diazaundecane-2,10-dione dioxime]: the melting point lay in the range of 150 to 152 °C. Consider `CC(=NO)C(C)(C)NCC(C)CNC(C)(C)C(Cn1ccnc1[N+](=O)[O-])=NO` (centres unmarked) [Example 23, 3,3,6,9,9-Pentamethyl-1-(2-nitro-1H-imidazol-1-yl)-4,8-diazaundecane-2,10-dione dioxime], for which the melting point lay in the range of 167 to 168 °C. For `COCC(O)Cn1ccnc1[N+](=O)[O-]` (centres unmarked) [Misonidazole, reference compound], in data set [2] (first or only reduction listed), the “Epc(V)” value is −1.49 V and the Reduction process entry is reported as “reversible”. As to `CC(=NO)C(C)(C)NCC(O)CNC(C)(C)C(Cn1ccnc1[N+](=O)[O-])=NO` (centres unmarked) [Example 4, 6-Hydroxy-3,3,9,9-tetramethyl-1-(2-nitro-1H-imidazo-1-yl)-4,8-diazaundecane-2,10-dione dioxime], in data set [2] (first or only reduction listed), the “Epc(V)” value was −1.51 V and the Reduction process result is listed as “reversible”.

As to `CC(=NO)C(C)(C)NCC(O)CNC(C)(C)C(C)=NO` (centres unmarked) [^99mTc Complex of 6-hydroxy-PnAO, 6-hydroxy PnAO(6-hydroxy-3,3,9,9-tetramethyl-4,8-diazaundecane-2,10-dione dioxime), metal not drawn, reference compound], in data set [3] (% in Cell Pellet), the Anoxia/normoxia ratio came to 1.3. In addition, in data set [3] (several Tc-99m complexes), the “% in Cell Pellet, Anoxia” value is 9.2 (n = 1) % and the “% in Cell Pellet, Normoxia” value is given as 7.1 (n = 1) %. `CCOCC(=NO)C(C)(C)NCCCNC(C)(C)C(Cn1ccnc1[N+](=O)[O-])=NO` [Example 25, 11-Ethoxy-3,3,9,9-tetramethyl-1-(2-nitro-1H-imidazol-1-yl)-4,8-diazaundecane-2,10-dione dioxime]: the melting point fell in the range of 122 to 123 °C. Regarding `CC(=NO)C(C)(C)NCCCNC(C)(C)C(CCn1ccnc1[N+](=O)[O-])=NO` [Example 3, 4,4,10,10-Tetramethyl-1-(2-nitro-1H-imidazo-1-yl)-5,9-diazadodecane-3,11-dione dioxime], in data set [2] (first or only reduction listed), the “Epc(V)” value is listed as −1.54 V and the Reduction process entry is “reversible”. `CC(=NO)C(C)(C)NCC(CNC(C)(C)C(C)=NO)NC(=O)Cn1ccnc1[N+](=O)[O-]` (centres unmarked) [Example 5, 3,3,9,9-Tetramethyl-6-((2-nitro-1H-imidazo-1-yl)acetamido)-4,8-diazaundecane-2,10-dione dioxime]: in data set [2] (first or only reduction listed), the “Epc(V)” value is −1.52 V and the Reduction process result is “reversible”. As for `CC1=[N+](O)[99Tc-]23(=[O])[N](CCC[N]2C1(C)C)C(C)(C)C(Cn1cnc([N+](=O)[O-])c1)=[N+]3[O-]` [Example 6a, [^99Tc]Oxo[[3,3,9,9-tetramethyl-1-(4-nitro-1H-imidazo-1-yl)-4,8-diazaundecane-2,10-dione dioximato]-(3-)-N,N′,N″,N′″]technetium(V)], in data set [2] (first or only reduction listed), the “Epc(V)” value was −1.81 V and the Reduction process result was “reversible”. Besides, in data set [2] (second reduction listed), the “Epc(V)” value was −2.02 V and the Reduction process result is listed as “irreversible”.
